Measurements taken from US8791158B2, “Methods of treating meibomian gland dysfunction” (GTX, Inc., priority 2010, dated 2014).
Marks after values point to notes of the source that are not given here.

Tests used:
[1] = tested on: orchiectomized (ORX) rabbits; assay: Dose effect on palmitate:stearate ratio in tears, harderian and Meibomian glands, Example 5; assay type: in vivo, rabbit; details: for Palmitate:stearate ratio in Meibomian gland / Palmitate:stearate ratio in harderian gland / Palmitate:Stearate Ratio in Tears: ORX rabbits; for Palmitate:stearate ratio in Meibomian gland / Palmitate:stearate ratio in harderian gland: mean; for Increase of lipid (palmitate:stearate) ratio in harderian glands: topical 1.25 mg/kg (highest dose tested); for Change in Meibomian gland lipids / Dose dependence of palmitate:stearate ratio in harderian glands / Dose dependence of palmitate:stearate ratio in tears: topical 0.625 and 1.25 mg/kg; for Palmitate:Stearate Ratio in Tears: day 15, mean
Source text: The goal of this study was to determine the effect of dosage amounts of Compounds 1 and 2 on tear composition.
Thirty New Zealand white rabbits weighing approximately 3 lbs were allowed to acclimate for two weeks before the start of the study Animals were weighed on day 0 of the study, randomized according to body weight and allotted to the following orchiectomized (ORX) dose groups:
Surgeries for the study were staggered to limit the maximum number of surgeries per day to six. One animal from each group was entered into the study every day and castration was performed as described below. Animals were premedicated with glycopyrrolate (0.02 mg/kg) and anesthesia was induced with a combination of ketamine (15 mg/kg): medetomidine (0.25 mg/kg). Anesthesia was maintained with isoflurane (1 liter/hr). Orchiectomy was performed using a scrotal incision. Animals were reversed from anesthesia using atipamezole (1 mg/kg) SQ. Analgesia was provided with buprenorphine (0.05 mg/kg) SQ immediately after the animal's regained sternal recumbency.
Immediately after recovery from anesthesia, the animals were dosed with the appropriate test articles as indicated above. Drug dosing was performed once daily for 14 d. Blood samples were collected on day 11 of dosing at 0, 30, 60, 120, 240 and 1440 minutes post administration and to plasma separated for LCMS analysis of parent drug concentrations. Tears were collected using Schirmer tear strips (Alcon, Tex.) on day 0 before surgery and 24 hours after the last administration of drug (day 15). The tears were stored at −80° C. until shipment for lipid analysis. Lipids were hydrolyzed, extracted from the Schirmer strips, derivatized, and subjected to GC-FID to evaluate the lipid composition. The samples were evaluated for the presence of 28 saturated and unsaturated fatty acids that included methyl caprate (C10:0), methyl laurate (C12:0), methyl 11-dodecenoate (C12:1), methyl myri state (C14:0), methyl myristoleate (C14:1), methyl palmitate (C16:0), methyl palmitoleate (C16:1), methyl stearate (C18:0), methyl oleate (C18:1), methyl vaccenate (C18:1), methyl linoleate (C18:2), methyl gamma linoleate (C18:3), methyl linoleate (C18:3), methyl arachidate (C20:0), methyl 11-eicosenoate (C20:1), methyl 11,14 eicosadinoate (C20:2), methyl 8,11,14 eicosatrienoate (C20:3), methyl eicosapentaenoate (C20:5), methyl behenate (C22:0), methyl erucate (C22:1), methyl 13,16 docosaenoate (C22:2), methyl docosatetraenoate (C22:4), methyl docosapentaenoate (C22:5), methyl docosahexaenoate (C22:6), methyl lignocerate and (C24:0), methyl nervonate (C24:1). Area under the curve for each individual peak was determined using the GC ChemStation software. To normalize for the tear content, the lipid composition was expressed as a ratio of the lipid that was most affected by castration (palmitate) to one which remained relatively constant (stearate).
At the end of the study, the animals were euthanatized. The harderian and Meibomian glands were collected for lipid analysis and snap frozen using an ethanol: dry ice bath. Samples were stored at −80 C until ready to ship for analysis.
Lipids in rabbit tears are derived from secretions of the harderian and Meibomian glands. Lipid content in the glands was assayed using GCMS. […] The lipid ratio was increased by more than 2-fold by Compound 1 (1.25 mg/kg), while the effect of Compound 2 was even greater with an almost 3-fold increase in the lipid ratio seen at the highest dose tested (1.25 mg/kg).

[2] = Pharmacokinetic analysis of rabbit plasma after topical dosing, Example 4; assay type: in vivo; details: topical or ocular, 2.5 mg/kg, topical 2.5 mg/kg, day 11 of dosing, read-out: Mean plasma concentrations over time (AUC)
Procedure: Immediately after the animals had recovered from anesthesia, they were dosed with the appropriate test articles as indicated above. Drug dosing was done once daily for 14 d. Blood samples were collected at 30, 60, 120, 240 and 1440 minutes after dose administration on day 11 for pharmacokinetic analyses. Plasma was separated for HPLC analysis of parent drug concentrations. Tears were collected using Schirmer tear strips (Alcon, Tex.) on day 0 before surgery and 24 hours after the last administration of drug (day 15). The tears were stored at −80° C. until shipment for analysis. […] Area under the curve for each individual peak was determined using the GC ChemStation software. To normalize for the tear content, the lipid composition was expressed as a ratio of the lipid that was most affected by castration (palmitate) to one which remained relatively constant (stearate).
Plasma samples collected after dosing on day 11 were analyzed using an LCMS/MS method. […]
Mobile phase consisted of 60% acetonitrile, 40% water and 0.1% formic acid. […] The plasma concentration—time data were analyzed by non-compartmental methods using WinNonlin (Version 3.1, Pharsight Corporation, Mountain View, Calif., USA). The area under the plasma concentration—time curve from time zero to infinity (AUC) was calculated by the trapezoidal rule with extrapolation to time infinity. […]

Compound | Palmitate:stearate ratio in Meibomian gland ([1]; topical 0.625 mg/kg) | Palmitate:stearate ratio in harderian gland ([1]; topical 0.625 mg/kg) | Palmitate:stearate ratio in Meibomian gland ([1]; topical 1.25 mg/kg) | Palmitate:stearate ratio in harderian gland ([1]; topical 1.25 mg/kg) | Increase of lipid (palmitate:stearate) ratio in harderian glands [1] | Change in Meibomian gland lipids [1] | Dose dependence of palmitate:stearate ratio in harderian glands [1] | Dose dependence of palmitate:stearate ratio in tears [1] | AUC [2] [µM·h] | Palmitate:Stearate Ratio in Tears ([1]; topical 0.625 mg/kg once daily 14 d) | Palmitate:Stearate Ratio in Tears ([1]; topical 1.25 mg/kg once daily 14 d)
C[C@](O)(COc1ccc(C#N)cc1)C(=O)Nc1ccc(C#N)c(C(F)(F)F)c1 [Compound 1, (S)—N-(4-Cyano-3-(trifluoromethyl)phenyl)-3-(4-cyanophenoxy)-2-hydroxy-2-methylpropanamide] | 3.29 | 3.45^a,b | 3.68 | 4.87^a,b | more than 2 fold | No statistically significant change | dose dependent increase | no significant dose dependent changes | 25.2 |  | 
C[C@](O)(COc1ccc(C#N)c(F)c1)C(=O)Nc1ccc(C#N)c(C(F)(F)F)c1 [Compound 2, (S)—N-(4-cyano-3-(trifluoromethyl)phenyl)-3-(4-cyano-3-fluorophenoxy)-2-hydroxy-2-methylpropanamide] | 3.36 | 6.09^a,b | 3.31 | 5.30^a,b | ~3 fold | No statistically significant change | dose dependent increase | dose dependent increase | 12.2 | 2.67^a,b | 3.93^a,b
